Measured values as given in patent US12037324B2, “Biarylmethyl heterocycles” (Université de Montréal, priority 2016, dated 2024).
Like-named read-outs stand apart in the source and are kept apart here.

Legend:
[1] = target: T1, AGTR1 (Homo sapiens, UniProt P30556); experiment: DiscoveRx β-arrestin2 recruitment assay (enzyme complementation, Pathunter CHO-K1 AGTR1 β-arrestin cell line); assay type: cell-based; details: DiscoveRx β-arrestin2 recruitment; for DiscoveRx β-arrestin2 Ymax (%): maximal response
T1 construct: host or cells: Pathunter CHO-K1 AGTR1 β-arrestin cell line (CHO-K1)
T1 sequence (P30556 1-359): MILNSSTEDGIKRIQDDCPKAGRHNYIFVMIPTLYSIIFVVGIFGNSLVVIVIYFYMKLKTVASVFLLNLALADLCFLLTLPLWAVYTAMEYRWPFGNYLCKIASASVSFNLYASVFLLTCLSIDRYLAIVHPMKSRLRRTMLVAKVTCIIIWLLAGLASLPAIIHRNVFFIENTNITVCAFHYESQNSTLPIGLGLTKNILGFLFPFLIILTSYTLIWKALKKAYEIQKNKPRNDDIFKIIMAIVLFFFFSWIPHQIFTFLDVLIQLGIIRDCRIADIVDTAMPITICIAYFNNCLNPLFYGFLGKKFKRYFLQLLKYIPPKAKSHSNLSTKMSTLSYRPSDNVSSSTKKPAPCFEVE
Summary of the method: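 CHO-K1 cells expressing AGTR1 with β-arrestin2 enzyme-complementation reporter, plated 14-16 h ahead in 1% serum medium, then exposed to compounds for 90 min at 37° C. Chemiluminescence read after 1 h detection. EC50 (agonist) or IC50 (antagonist) from 4-parameter logistic fit; activity as percentage of All maximal effect.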

[2] = target: T1, AGTR1; experiment: DiscoveRx IP1 accumulation assay (HTRF), agonist mode, Pathunter CHO-K1 AGTR1 β-arrestin cell line; assay type: cell-based; details: for EC50: read-out: IP-1 EC50
Summary of the method: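 Agonist mode in CHO-K1 AGTR1 β-arrestin cells plated 14-16 h before; compounds at varying concentrations for 90 min at 37° C, IP1 accumulation read by HTRF (D2-conjugate and anti-IP1 cryptate, 20 min room temperature). EC50 from 4-parameter logistic fit; activity given as percentage of maximal AII effect.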

[3] = target: T2, hAT1R (Homo sapiens, UniProt P30556); experiment: cell-based
T2 sequence (P30556 1-359): T1 sequence (P30556 1-359)

[4] = target: T2, hAT1R; experiment: cell-based; details: agonist mode; for EC50: read-out: BRET P63 EC50
[5] = Low AT1R Expression, read-out: BRET β-Arrestin2 Low AT1R Expression EC50
[6] = section of the 42nd table ending at r951, example numbering restarts after the DiscoveRx section, read-out: β-arrestin2 EC50

| SMILES | EC50 [1] [µM] | DiscoveRx β-arrestin2 Ymax (%) [1] [%] | IP-1 Ymax (%) [2] [%] | EC50 [2] [µM] | BRET β-Arrestin2 Low AT1R Expression Ymax (%) ([3]; Low AT1R Expression) | EC50 [3, 5] [µM] | BRET P63 Ymax [4] [%] | EC50 [4] [µM] | EC50 [3, 6] [µM] |
| --- | --- | --- | --- | --- | --- | --- | --- | --- | --- |
| CCC1=NC2(CCCC2)C(=O)N1Cc1ccc(-c2cc(-c3cc(C)ccn3)ccc2-c2nn[nH]n2)cc1 [Example 113] | 0.0149 | 66.3 | 17.8 | 0.0835 | 88.6 | 0.0098 | 28.6 | 0.0172 | – |
| CCc1nc2c(C)cc(C)nc2n1Cc1cnc(-c2cc(-c3cccc(C)c3)ccc2-c2nnn[nH]2)nc1 [Example 197, 2-ethyl-5,7-dimethyl-3-((2-(3′-methyl-4-(1H-tetrazol-5-yl)biphenyl-3-yl)pyrimidin-5-yl)methyl)-3H-imidazo[4,5-b]pyridine] | 0.282 | 20.2 | 5.7 | 0.493 | – | – | – | > 100 | > 10 |
| CCCCC1=NC2(CCOC2)C(=O)N1Cc1ccc(-c2cc(-c3ccccc3O)ccc2-c2nnn[nH]2)cc1 (single isomer, unassigned) [Example 150] | 0.0137 | 45.6 | 17.2 | 0.0207 | 65.7 | 0.0769 | 14.6 | 0.105 | – |
| CCc1nc2c(C)cc(C)nc2n1Cc1ccc(-c2cc(-c3cn(C)nn3)ccc2-c2nnn[nH]2)cc1 [Example 243, 2-Ethyl-5,7-dimethyl-3-((5′-(1-methyl-1H-1,2,3-triazol-4-yl)-2′-(1H-tetrazol-5-yl)-[1,1′-biphenyl]-4-yl)methyl)-3H-imidazo[4,5-b]pyridine] | 0.0224 | 37.7 | 14.7 | 0.052 | – | – | 15.2 | 0.0421 | 0.0715 |
| CCc1nc2c(C)cc(C)nc2n1Cc1ccc(-c2cc(N3CCCCC3)ccc2-c2nn[nH]n2)cc1 [Example 91] | 0.0606 | 22.6 | – | > 100 | – | > 10 | – | > 100 | – |
| CCc1nc2c(C)cc(C)nc2n1Cc1ccc(-c2cc(Oc3cccnc3F)ccc2-c2nn[nH]n2)cc1 [Example 262] | 0.0199 | 50.8 | 8.6 | 0.0379 | – | – | 14.4 | 0.0112 | 0.0143 |
| CCC1=NC2(CCOC2)C(=O)N1Cc1ccc(-c2cc(-c3cccc(C)c3)ccc2-c2nnn[nH]2)cc1 (single isomer, unassigned) [Example 166] | 0.0231 | 47.5 | 14.8 | 0.103 | – | – | 22.7 | 0.065 | 0.0645 |
| CCc1cn(-c2ccc(-c3nnn[nH]3)c(-c3ccc(Cn4c(CC)nc5c(C)cc(C)nc54)cc3)c2)nn1 [Example 231] | 0.0287 | 36.8 | 8.4 | 0.0301 | – | – | 13.8 | 0.0362 | 0.0988 |
| CCc1nc2c(C)cc(C)nc2n1Cc1ncc(-c2cc(-c3cccc(C)c3)ccc2-c2nnn[nH]2)cn1 [Example 188, 2-ethyl-5,7-dimethyl-3-((5-(3′-methyl-4-(1H-tetrazol-5-yl)biphenyl-3-yl)pyrimidin-2-yl)methyl)-3H-imidazo[4,5-b]pyridine] | 0.0417 | 53.3 | 24.2 | 0.173 | – | – | 17.2 | 0.0331 | 0.0246 |
| CCc1nc2c(C)cc(C)nc2n1Cc1ccc(-c2cc(-c3cn(CC(C)C)nn3)ccc2-c2nnn[nH]2)cc1 [Example 240] | 0.0486 | 42.0 | 14.1 | 0.122 | – | – | 9.5 | 0.0601 | 0.345 |
| CC1=NC2(CCCC2)C(=O)N1Cc1ccc(-c2cc(-c3ccccc3)ccc2-c2nn[nH]n2)cc1 [Example 110, 3-((6′-(2H-tetrazol-5-yl)-[1,1′:3′,1″-terphenyl]-4-yl)methyl)-2-methyl-1,3-diazaspiro[4.4]non-1-en-4-one] | 0.0359 | 26.9 | 9.0 | 0.108 | 22.1 | 0.0955 | – | > 100 | – |
| CCCCC1=NC2(CCOC2)C(=O)N1Cc1ccc(-c2cc(-c3ccccc3O)ccc2-c2nnn[nH]2)cc1 (single isomer, unassigned) [Example 151] | 0.0764 | 44.3 | 14.0 | 0.607 | 42.5 | 0.419 | 11.0 | 0.174 | – |
| Cc1ccnc(-c2ccc(-c3nn[nH]n3)c(-c3ccc(CN4C(=O)C5(CCCC5)N=C4C4CC4)cc3)c2)c1 [Example 120, 2-cyclopropyl-3-((5′-(4-methylpyridin-2-yl)-2′-(2H-tetrazol-5-yl)-[1,1′-biphenyl]-4-yl)methyl)-1,3-diazaspiro[4.4]non-1-en-4-one] | 0.0125 | 44.5 | 20.7 | 0.0753 | 50.1 | 0.0343 | 17.8 | 0.0184 | – |
| CCc1nc2c(C)cc(C)nc2n1Cc1ccc(-c2cc(-c3cc(OC)ccn3)ccc2-c2nn[nH]n2)cc1 [Example 62, 2-Ethyl-3-((5′-(4-methoxypyridin-2-yl)-2′-(2H-tetrazol-5-yl)-[1,1′-biphenyl]-4-yl)methyl)-5,7-dimethyl-3H-imidazo[4,5-b]pyridine] | 0.0151 | 50.0 | 22.7 | 0.029 | 74.7 | 0.0037 | 35.7 | 0.0042 | – |
| CCc1nc2c(C)cc(C)nc2n1Cc1ccc(-c2cc(-c3ccccc3)ccc2-c2n[nH]c(=S)o2)cc1 [Example 246, 5-(4″-((2-Ethyl-5,7-dimethyl-3H-imidazo[4,5-b]pyridin-3-yl)methyl)-[1,1′:3′,1″-terphenyl]-4′-yl)-1,3,4-oxadiazole-2(3H)-thione] | 0.234 | 38.3 | 4.8 | 0.281 | – | – | 10.1 | 0.0826 | 0.916 |
| CCc1nc2c(C)cc(C)nc2n1Cc1ncc(-c2cc(-c3ccccc3O)ccc2-c2nnn[nH]2)cn1 [Example 189] | 0.0092 | 53.0 | 12.7 | 0.0184 | – | – | 17.5 | 0.0321 | 0.0492 |
